# From patent US20140142155A1, “METHOD OF TREATING THROMBOCYTOPENIA” (GlaxoSmithKline LLC, priority 2008, published 2014)
# Read-outs that look alike come from different tables or passages of the source.
# How the values were obtained:
# rats [1] = conditions: rat, in vivo
# UGT1A3 [2] = molecular target: T1, UGT1A3 (Homo sapiens, UniProt P35503); experiment: In vitro glucuronidation; type: in vitro ADME
# mice [3] = conditions: mouse, in vivo
# rats [4] = experiment: Platelet production in animals; type: in vivo, rat
# rats [5] = experiment: In vivo micronucleus assay; conditions: rat micronucleus, 11 times human clinical exposure (Cmax)
# rats [6] = conditions: rat, in vivo; remark: listed apart in the source
# mice [7] = experiment: Platelet production in animals; type: in vivo, mouse
# pregnant rats (F0) = experiment: Pre- and post-natal developmental toxicity study; type: in vivo, rat
# rabbits = experiment: Toxicology in rabbits; type: in vivo, rabbit; conditions: 1.4 times human clinical exposure (AUC)
# CYP2C9 = CYP2C9 (Homo sapiens, UniProt P11712); experiment: In vitro CYP inhibition (diclofenac probe); type: in vitro ADME; conditions: diclofenac probe substrate
# CYP2C9, sequence (P11712 whole entry): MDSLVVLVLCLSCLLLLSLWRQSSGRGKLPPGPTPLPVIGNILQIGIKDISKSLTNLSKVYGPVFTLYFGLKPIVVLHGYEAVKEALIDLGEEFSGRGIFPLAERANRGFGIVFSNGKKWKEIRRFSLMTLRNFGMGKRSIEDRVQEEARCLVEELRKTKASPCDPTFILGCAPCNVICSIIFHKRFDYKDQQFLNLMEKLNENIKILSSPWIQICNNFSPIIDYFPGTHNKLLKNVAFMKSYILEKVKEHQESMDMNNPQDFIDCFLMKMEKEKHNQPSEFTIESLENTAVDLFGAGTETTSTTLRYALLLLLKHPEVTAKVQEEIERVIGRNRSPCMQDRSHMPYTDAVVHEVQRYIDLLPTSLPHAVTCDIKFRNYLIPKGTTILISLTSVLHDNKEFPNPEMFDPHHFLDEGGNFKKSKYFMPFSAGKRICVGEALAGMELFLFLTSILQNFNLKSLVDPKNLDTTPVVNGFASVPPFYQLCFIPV
# Excerpt: (§1) Probe substrates for CYP2C8 were not evaluated in this study.
# CYP2C8 = CYP2C8 (Homo sapiens, UniProt P10632); experiment: In vitro CYP inhibition (paclitaxel probe); type: in vitro ADME; conditions: paclitaxel probe substrate
# CYP2C8, sequence (P10632 whole entry): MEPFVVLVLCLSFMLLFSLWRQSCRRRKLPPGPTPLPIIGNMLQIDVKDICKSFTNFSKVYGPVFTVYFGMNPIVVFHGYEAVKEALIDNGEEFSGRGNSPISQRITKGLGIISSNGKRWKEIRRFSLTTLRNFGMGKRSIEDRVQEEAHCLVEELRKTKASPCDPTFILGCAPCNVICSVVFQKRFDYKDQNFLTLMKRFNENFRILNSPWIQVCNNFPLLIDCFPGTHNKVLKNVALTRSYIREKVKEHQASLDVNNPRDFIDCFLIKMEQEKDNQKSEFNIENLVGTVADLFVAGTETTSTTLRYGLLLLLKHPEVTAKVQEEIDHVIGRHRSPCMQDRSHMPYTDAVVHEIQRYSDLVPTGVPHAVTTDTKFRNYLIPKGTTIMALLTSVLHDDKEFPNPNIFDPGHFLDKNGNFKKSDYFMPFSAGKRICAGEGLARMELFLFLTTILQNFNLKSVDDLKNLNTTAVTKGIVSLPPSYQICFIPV
# Excerpt: as §1
# [8] = In vitro phototoxicity and photoclastogenicity; type: cell-based
# female rats = experiment: Early embryonic development study; type: in vivo, rat; conditions: highest dose, 7 times human clinical exposure (AUC); maternally toxic
# UGT2B15 = UGT2B15 (Homo sapiens, UniProt P54855); experiment: In vitro UGT inhibition; type: in vitro ADME
# UGT2B15, sequence (P54855 24-530): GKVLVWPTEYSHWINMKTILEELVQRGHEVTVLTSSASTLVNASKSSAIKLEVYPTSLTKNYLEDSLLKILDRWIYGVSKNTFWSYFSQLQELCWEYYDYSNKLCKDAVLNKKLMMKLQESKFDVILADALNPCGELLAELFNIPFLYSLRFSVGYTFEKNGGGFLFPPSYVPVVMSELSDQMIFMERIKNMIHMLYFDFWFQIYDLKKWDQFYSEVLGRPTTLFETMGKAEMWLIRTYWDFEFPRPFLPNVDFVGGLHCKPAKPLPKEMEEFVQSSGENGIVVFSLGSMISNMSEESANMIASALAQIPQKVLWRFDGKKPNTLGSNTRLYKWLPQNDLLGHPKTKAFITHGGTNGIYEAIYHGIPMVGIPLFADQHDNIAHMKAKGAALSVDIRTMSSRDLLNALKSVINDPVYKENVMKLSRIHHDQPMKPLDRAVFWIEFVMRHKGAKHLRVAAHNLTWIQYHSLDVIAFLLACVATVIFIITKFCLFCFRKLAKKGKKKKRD
# Excerpt: (§2) Monitor patients closely for signs or symptoms of excessive exposure to these drugs when concomitantly administered with Promacta®.
# UGT1A3 [9] = molecular target: T1, UGT1A3; experiment: In vitro UGT inhibition; type: in vitro ADME
# Excerpt: as §2
# UGT1A4 = UGT1A4 (Homo sapiens, UniProt P22310); experiment: In vitro UGT inhibition; type: in vitro ADME
# UGT1A4, sequence (P22310 29-534): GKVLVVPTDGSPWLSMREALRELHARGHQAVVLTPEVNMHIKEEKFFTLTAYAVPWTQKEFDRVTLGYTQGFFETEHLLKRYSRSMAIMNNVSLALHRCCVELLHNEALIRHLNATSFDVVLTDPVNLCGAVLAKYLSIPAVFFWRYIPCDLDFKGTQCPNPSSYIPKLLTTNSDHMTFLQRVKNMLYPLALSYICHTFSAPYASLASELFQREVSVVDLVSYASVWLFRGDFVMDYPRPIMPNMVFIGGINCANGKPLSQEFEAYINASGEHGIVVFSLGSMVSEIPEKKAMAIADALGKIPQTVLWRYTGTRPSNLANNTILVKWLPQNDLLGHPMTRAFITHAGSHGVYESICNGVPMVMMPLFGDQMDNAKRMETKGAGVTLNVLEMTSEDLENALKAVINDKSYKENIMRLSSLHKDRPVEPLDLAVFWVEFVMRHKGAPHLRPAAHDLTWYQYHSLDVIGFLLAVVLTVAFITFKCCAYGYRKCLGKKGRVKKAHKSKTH
# Excerpt: as §2
# UGT1A9 = UGT1A9 (Homo sapiens, UniProt O60656); experiment: In vitro UGT inhibition; type: in vitro ADME
# UGT1A9, sequence (O60656 26-530): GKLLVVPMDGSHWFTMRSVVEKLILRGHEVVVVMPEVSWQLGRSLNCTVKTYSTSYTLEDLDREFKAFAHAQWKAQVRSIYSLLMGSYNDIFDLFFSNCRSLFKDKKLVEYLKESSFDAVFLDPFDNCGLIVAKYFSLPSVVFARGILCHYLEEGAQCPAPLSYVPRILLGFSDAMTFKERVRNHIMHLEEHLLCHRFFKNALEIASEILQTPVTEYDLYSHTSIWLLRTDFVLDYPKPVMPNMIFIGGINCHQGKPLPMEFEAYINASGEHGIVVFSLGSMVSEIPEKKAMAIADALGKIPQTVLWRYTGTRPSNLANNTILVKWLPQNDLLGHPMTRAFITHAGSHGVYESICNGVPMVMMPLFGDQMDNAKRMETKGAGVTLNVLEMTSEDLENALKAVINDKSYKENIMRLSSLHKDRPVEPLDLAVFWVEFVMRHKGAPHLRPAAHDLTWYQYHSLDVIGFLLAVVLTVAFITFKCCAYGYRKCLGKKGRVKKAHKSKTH
# Excerpt: as §2
# UGT1A6 = UGT1A6 (Homo sapiens, UniProt P19224); experiment: In vitro UGT inhibition; type: in vitro ADME
# Excerpt: as §2
# UGT1A1 [10] = molecular target: T2, UGT1A1 (Homo sapiens, UniProt P22309); experiment: In vitro UGT inhibition; type: in vitro ADME
# T2 sequence (P22309 26-533): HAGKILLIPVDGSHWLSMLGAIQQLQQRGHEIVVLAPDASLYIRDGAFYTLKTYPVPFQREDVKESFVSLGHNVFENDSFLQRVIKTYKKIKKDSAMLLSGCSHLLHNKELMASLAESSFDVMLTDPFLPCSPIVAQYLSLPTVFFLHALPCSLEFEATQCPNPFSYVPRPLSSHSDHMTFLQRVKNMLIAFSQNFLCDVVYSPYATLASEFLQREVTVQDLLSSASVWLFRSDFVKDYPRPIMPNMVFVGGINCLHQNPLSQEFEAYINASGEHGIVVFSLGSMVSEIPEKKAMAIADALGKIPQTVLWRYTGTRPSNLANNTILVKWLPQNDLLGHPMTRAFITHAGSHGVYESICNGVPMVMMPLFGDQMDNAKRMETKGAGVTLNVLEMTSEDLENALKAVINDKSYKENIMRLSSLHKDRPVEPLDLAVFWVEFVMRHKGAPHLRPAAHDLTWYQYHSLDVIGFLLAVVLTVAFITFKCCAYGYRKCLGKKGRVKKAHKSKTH
# Excerpt: as §2
# UGT2B7 = UGT2B7 (Homo sapiens, UniProt P16662); experiment: In vitro UGT inhibition; type: in vitro ADME
# UGT2B7, sequence (P16662 24-529): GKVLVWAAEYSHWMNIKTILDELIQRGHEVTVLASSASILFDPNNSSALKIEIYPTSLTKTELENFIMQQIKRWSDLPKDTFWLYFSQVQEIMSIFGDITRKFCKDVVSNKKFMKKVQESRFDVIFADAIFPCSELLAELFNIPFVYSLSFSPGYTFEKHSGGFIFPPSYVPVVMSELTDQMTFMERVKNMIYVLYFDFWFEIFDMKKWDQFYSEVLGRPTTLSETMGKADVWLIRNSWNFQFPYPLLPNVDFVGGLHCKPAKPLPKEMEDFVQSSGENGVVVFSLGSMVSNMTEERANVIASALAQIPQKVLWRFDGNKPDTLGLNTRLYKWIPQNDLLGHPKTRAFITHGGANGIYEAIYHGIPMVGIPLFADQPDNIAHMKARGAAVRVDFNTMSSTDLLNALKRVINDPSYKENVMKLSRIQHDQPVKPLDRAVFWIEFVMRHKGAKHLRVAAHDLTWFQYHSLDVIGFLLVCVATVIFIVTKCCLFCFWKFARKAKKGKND
# Excerpt: as §2
# OATP1B1 = OATP1B1 (Homo sapiens, UniProt Q9Y6L6); experiment: Transporter substrate assessment; type: in vitro ADME
# OATP1B1, sequence (Q9Y6L6 whole entry): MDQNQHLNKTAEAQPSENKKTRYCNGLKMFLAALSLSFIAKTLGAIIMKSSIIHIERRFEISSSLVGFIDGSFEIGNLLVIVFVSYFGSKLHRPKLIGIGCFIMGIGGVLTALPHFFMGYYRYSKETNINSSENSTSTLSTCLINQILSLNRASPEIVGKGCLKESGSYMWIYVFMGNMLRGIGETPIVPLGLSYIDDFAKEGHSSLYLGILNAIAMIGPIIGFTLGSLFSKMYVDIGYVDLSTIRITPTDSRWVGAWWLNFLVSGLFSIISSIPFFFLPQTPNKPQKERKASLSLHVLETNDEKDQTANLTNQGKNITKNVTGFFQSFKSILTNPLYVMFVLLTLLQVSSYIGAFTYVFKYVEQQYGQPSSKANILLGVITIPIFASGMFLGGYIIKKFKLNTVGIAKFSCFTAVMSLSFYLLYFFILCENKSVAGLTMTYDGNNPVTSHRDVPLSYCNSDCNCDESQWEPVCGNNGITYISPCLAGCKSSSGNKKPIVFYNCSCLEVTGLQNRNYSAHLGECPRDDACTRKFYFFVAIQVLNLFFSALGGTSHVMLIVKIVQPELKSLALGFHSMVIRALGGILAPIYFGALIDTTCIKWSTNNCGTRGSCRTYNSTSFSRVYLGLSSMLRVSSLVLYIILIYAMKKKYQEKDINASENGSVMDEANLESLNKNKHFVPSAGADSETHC
# pregnant rabbits = conditions: oral 30, 80, or 150 mg/kg/day (0.1, 0.3, 0.6 times human clinical exposure, AUC)
# bacterial = experiment: Bacterial mutation assay
# dogs [11] = experiment: Platelet production in animals; type: in vivo, dog
# dogs [12] = conditions: dog, in vivo
# [13] = Clinical pharmacokinetics: absorption, distribution, metabolism, elimination (incl. radiolabel study); type: in vivo, human; conditions: for half-life: plasma, oral
# Procedure: Based on urinary excretion and biotransformation products eliminated in feces, the oral absorption of drug-related material following administration of a single 75 mg solution dose was estimated to be at least 52%.
# Metabolites due to glucuronidation and oxidation were also detected.
# [14] = Food effect open-label randomized crossover study; type: in vivo, human; conditions: standard high-fat breakfast
# Excerpt: The calcium content of this meal may have also contributed to this decrease in exposure.
# UGT1A1 [15] = molecular target: T2, UGT1A1; experiment: In vitro glucuronidation; type: in vitro ADME
# mice [16] = conditions: mouse, in vivo; remark: listed apart in the source
# p-glycoprotein (Pgp) = p-glycoprotein (Pgp) (Homo sapiens, UniProt P08183); experiment: Transporter substrate assessment; type: in vitro ADME
# mice [17] = experiment: 2-year oral carcinogenicity study in mice; conditions: 2-year study, lowest dose (25 mg/kg/day)
# mice [18] = experiment: In vivo cutaneous phototoxicity; set-up: species or system mouse; conditions: up to 11 times human clinical exposure (AUC)
# mouse lymphoma = experiment: In vitro mouse lymphoma assay; type: cell-based
# rats [19] = experiment: Fertility studies in rats; type: in vivo, rat
# T1 sequence (P35503 29-534): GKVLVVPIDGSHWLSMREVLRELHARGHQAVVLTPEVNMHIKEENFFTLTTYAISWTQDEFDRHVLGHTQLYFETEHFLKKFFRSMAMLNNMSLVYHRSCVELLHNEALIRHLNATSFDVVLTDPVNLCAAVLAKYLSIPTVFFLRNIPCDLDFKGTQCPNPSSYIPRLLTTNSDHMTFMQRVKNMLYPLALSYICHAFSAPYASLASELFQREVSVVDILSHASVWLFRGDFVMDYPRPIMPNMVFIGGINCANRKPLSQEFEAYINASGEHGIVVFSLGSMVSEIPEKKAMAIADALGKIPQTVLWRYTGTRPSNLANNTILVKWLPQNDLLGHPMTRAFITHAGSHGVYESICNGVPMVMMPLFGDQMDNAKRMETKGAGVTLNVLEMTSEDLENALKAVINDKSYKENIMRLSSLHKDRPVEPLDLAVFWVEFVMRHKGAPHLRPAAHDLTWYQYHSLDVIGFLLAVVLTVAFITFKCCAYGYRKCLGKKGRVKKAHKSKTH
structure (smiles),measurement,setting,value
"CC1=NN(c2ccc(C)c(C)c2)C(=O)/C1=N\Nc1cccc(-c2cccc(C(=O)O)c2)c1O [eltrombopag, 3′-[(2Z)-[1-(3,4-dimethylphenyl)-1,5-dihydro-3-methyl-5-oxo-4H-pyrazol-4-ylidene]hydrazino]-2′-hydroxy-[1,1′-biphenyl]-3-carboxylic acid]",photo-ocular toxicity,rats [1],no evidence
same,role of UGT1A3 in glucuronidation,UGT1A3 [2],responsible
same,photo-ocular toxicity,mice [3],no evidence
same,platelet production,rats [4],does not stimulate platelet production
same,mutagenicity/clastogenicity,rats [5],not mutagenic or clastogenic
same,liver finding,rats [6],hepatocellular hypertrophy
same,liver finding (vacuolation),rats [6],hepatocellular vacuolation
same,duration of dosing after which cataracts were observed,rats [6]; 28 weeks,28 weeks
same,duration of dosing after which cataracts were observed,rats [6]; 39 weeks,39 weeks
same,platelet production,mice [7],does not stimulate platelet production
same,plasma concentrations in pups versus dose,"pregnant rats (F0); 0.8 and 2 times human clinical exposure (AUC), drug given to F0 dams",increased with dose
same,presence in plasma of offspring (F1),pregnant rats (F0); after administration to F0 dams,detected
same,effects on maternal reproductive function or development of offspring (F1),pregnant rats (F0); doses up to 2 times human clinical exposure (AUC),no adverse effects
same,liver finding,rabbits,hepatocellular hypertrophy
same,inhibition of CYP2C9,CYP2C9,inhibitor
same,inhibition of CYP2C8,CYP2C8,inhibitor
same,photoclastogenicity in vitro,[8],photoclastogenic
same,phototoxicity in vitro,[8],phototoxic
same,drug concentrations at which photoclastogenic effects were observed,"[8]; cytotoxic concentrations, UV 30 MED",≥ 15000 ng/mL
same,photoclastogenicity in vitro at lower UV exposure,"[8]; up to 58.4 mcg/mL, UV 15 MED",No evidence of in vitro photoclastogenicity
same,early embryonic development findings,female rats,Increased pre- and post-implantation loss and reduced fetal weight
same,inhibition of UGT2B15,UGT2B15,inhibitor
same,inhibition of UGT1A3,UGT1A3 [9],inhibitor
same,inhibition of UGT1A4,UGT1A4,inhibitor
same,inhibition of UGT1A9,UGT1A9,inhibitor
same,inhibition of UGT1A6,UGT1A6,inhibitor
same,inhibition of UGT1A1,UGT1A1 [10],inhibitor
same,inhibition of UGT2B7,UGT2B7,inhibitor
same,substrate for OATP1B1,OATP1B1,not a substrate
same,"fetotoxicity, embryolethality, or teratogenicity",pregnant rabbits,"no evidence of fetotoxicity, embryolethality, or teratogenicity"
same,mutagenicity/clastogenicity,bacterial,not mutagenic or clastogenic
same,platelet production,dogs [11],does not stimulate platelet production
same,cataracts,dogs [12],Cataracts were not observed
same,liver finding,dogs [12],hepatocellular hypertrophy
same,renal tubular toxicity,dogs [12],Renal tubular toxicity was not observed
same,dose found in the urine,[13]; % of dose,31%
same,excretion via feces,[13]; % of dose,59%
same,unchanged eltrombopag in feces,[13]; % of dose,approximately 20%
same,extent of metabolism,"[13]; cleavage, oxidation, conjugation",extensively metabolized
same,share of plasma radiocarbon AUC0-∞,[13]; human radiolabel study,approximately 64%
same,renal excretion,"[13]; human, in vivo",not significantly renally excreted
same,unchanged eltrombopag in urine,"[13]; human, in vivo",not detectable
same,time of peak concentration after oral administration,"[13]; human, in vivo, po",2 to 6 h
same,half-life,"[13]; human, ITP patients",26 to 35 h
same,half-life,"[13]; human, healthy subjects",21 to 32 h
same,concentration in blood cells as % of plasma concentrations,[13]; radiolabel study,50-79%
same,oral absorption of drug-related material,"[13]; single 75 mg solution dose, from urinary excretion and fecal biotransformation products",at least 52%
same,decrease of Cmax with food,[14],65%
same,decrease of plasma AUC0-∞ with food,[14],approximately 59%
same,role of UGT1A1 in glucuronidation,UGT1A1 [15],responsible
same,liver finding,mice [16],hepatocellular hypertrophy
same,renal tubular effects after 13 weeks,mice [16],No similar effects were observed
same,renal tubular toxicity,mice [16],Renal tubular toxicity was observed
same,duration of dosing after which cataracts were observed,mice [16]; 6 weeks,6 weeks
same,duration of dosing after which cataracts were observed,mice [16]; 13 weeks,13 weeks
same,substrate for p-glycoprotein (Pgp),p-glycoprotein (Pgp),not a substrate
same,exposure at the lowest dose relative to human clinical exposure based on AUC,mice [17],1.4 times
same,in vivo cutaneous phototoxicity,mice [18],no evidence
same,mouse lymphoma assay result,mouse lymphoma; in vitro,marginally positive
same,increase in mutation frequency,mouse lymphoma; in vitro mouse lymphoma assay,< 3 fold
same,female fertility,"rats [19]; doses up to 20 mg/kg/day (2 times human clinical exposure, AUC)",did not affect female fertility
same,male fertility,"rats [19]; doses up to 40 mg/kg/day, highest dose tested (5 times human clinical exposure, AUC)",did not affect male fertility
